Laboratory results: ChEMBL document CHEMBL2073954, “Transport activity of human MRP3 expressed in Sf9 cells: comparative studies with rat MRP3” (Pharm Res, 2002)

Assays:
[1] = target: T1, ATP-binding cassette sub-family C member 3 (Rattus norvegicus, UniProt O88563); assay: TP_TRANSPORTER: inhibition of E217betaG uptake in membrane vesicles from Mrp3-expressing Sf9 cells; format: functional, cell membranes, Membrane vesicle
[2] = target: Multidrug resistance associated protein (Homo sapiens, UniProt Q96QA9); assay: (§1) TP_TRANSPORTER: inhibition of E217betaG uptake in membrane vesicle from MRP3-expressing Sf9 cells; format: functional, cell membranes
[3] = target: T1, ATP-binding cassette sub-family C member 3; assay: (§2) TP_TRANSPORTER: uptake in membrane vesicles from Mrp3-expressing Sf9 cells; format: functional, cell membranes, Membrane vesicle
[4] = target: T1, ATP-binding cassette sub-family C member 3; assay: as §1; format: functional, cell membranes
[5] = substrate: C[C@]12CC[C@@H]3c4ccc(O)cc4CC[C@H]3[C@@H]1CC[C@@H]2O[C@@H]1O[C@H](C(=O)O)[C@@H](O)[C@H](O)[C@H]1O; assay: as §2; format: functional, cell membranes, Membrane vesicle
[6] = substrate: C[C@]12CC[C@@H]3c4ccc(O)cc4CC[C@H]3[C@@H]1CC[C@@H]2O[C@@H]1O[C@H](C(=O)O)[C@@H](O)[C@H](O)[C@H]1O; conditions: Sf9; Membrane vesicle
Description: TP_TRANSPORTER: uptake in membrane vesicle from MRP3-expressing Sf9 cells

Row | Molecule | Ki [1] | Ki [2] | Activity [3] | also measured
1 | O=C(O)[C@H]1O[C@@H](OCc2cc(=O)oc3cc(O)ccc23)[C@H](O)[C@@H](O)[C@@H]1O | 77 µM | 105 µM |  | 
2 | CCCCC/C=C\C\C=C/C=C/C=C/[C@@H](SC[C@@H](NC(=O)CC[C@H](N)C(=O)O)C(=O)NCC(=O)O)[C@@H](O)CCCC(=O)O [LEUKOTRIEN C4] |  |  | substrate [+] | 
3 | N[C@@H](CCC(=O)N[C@H](CSc1ccc([N+](=O)[O-])cc1[N+](=O)[O-])C(=O)NCC(=O)O)C(=O)O | 83.8 µM | 337 µM | substrate [+] | 
4 | CNc1nc2c(Cc3cccnc3)c(C)c(O[C@@H]3O[C@H](C(=O)O)[C@@H](O)[C@H](O)[C@H]3O)c(C)c2s1 [E3040 GLUCURONIDE] |  | 5.6 µM | substrate [+] | Ki [4]: 2600 nM
5 | CN(Cc1cnc2nc(N)nc(N)c2n1)c1ccc(C(=O)N[C@@H](CCC(=O)O)C(=O)O)cc1 [METHOTREXATE] | 90 µM | 1200 µM |  | 
6 | ATP-binding cassette sub-family C member 3 (Rattus norvegicus) (protein) MDRLCGSGELGSKFWDSNLTVYTNTPDLTPCFQNSLLAWVPCIYLWAALPCYLFYLRHHRLGYIVLSCLSRLKTALGVLLWCISWVDLFYSFHGLVHGSSPAPVFFITPLLVGITMLLATLLIQYERLRGVRSSGVLIIFWLLCVICAIIPFRSKILLALAEGKILDPFRFTTFYIYFALVLCAFILSCFQEKPPLFSPENLDTNPCPEASAGFFSRLSFWWFTKLAILGYRRPLEDSDLWSLSEEDCSHKVVQRLLEAWQKQQTQASGPQTAALEPKIAGEDEVLLKARPKTKKPSFLRALVRTFTSSLLMGACFKLIQDLSPSSTHSCSASSSGLFRPHGPYWWGFLLAGLMFVSSTMQTLILHQHYHCIFVMALRIRTAIIGVIYRKALTITNSVKREYTVGEMVNLMSVDAQRFMDVSPFINLLWSAPLQVILAIYFLWQILGPSALAGVAVIVLLIPLNGAVSMKMKTYQVQQMKFKDSRIKLMSEILNGIKVLKLYAWEPTFLEQVEGIRQGELQLLRKGAYLQAISTFIWVCTPFMVTLITLGVYVCVDKNNVLDAEKAFVSLSLFNILKIPLNLLPQLISGMTQTSVSLKRIQDFLNQDELDPQCVERKTISPGRAITIHNGTFSWSKDLPPTLHSINIQIPKGALVAVVGPVGCGKSSLVSALLGEMEKLEGAVSVKGSVAYVPQQAWIQNCTLQENVLFGQPMNPKRYQQALETCALLADLDVLPGGDQTEIGEKGINLSGGQRQRVSLARAVYSDANIFLLDDPLSAVDSHVAKHIFDQVIGPEGVLAGKTRVLVTHGISFLPQTDFIIVLADGQITEMGHYSELLQHDGSFANFLRNYAPDENQEANEGVLQHANEEVLLLEDTLSTHTDLTDTEPAIYEVRKQFMREMSSLSSEGEGQNRPVLKRYTSSLEKEVPATQTKETGALIKEEIAETGNVKLSVYWDYAKSVGLCTTLFICLLYAGQNAVAIGANVWLSAWTNDVEEHGQQNNTSVRLGVYATLGILQGLLVMLSAFTMVVGAIQAARLLHTALLHNQIRAPQSFFDTTPSGRILNRFSKDIYVIHEVLAPTILMLFNSFYTSISTIVVIVASTPLFCVVVLPLAVFYGFVQRFYVATSRQLKRLESVSRSPIFSHFSETVTGTSVIRAYGRVQDFKVLSDAKVDSNQKTTYPYIASNRWLGVHVEFVGNCVVLFSALFAVIGRNSLNPGLVGLSVSYALQVTLSLNWMIRTLSDLESNIIAVERVKEYSKTETEAPWVLESNRAPEGWPRSGVVEFRNYSVRYRPGLELVLKNLTLHVQGGEKVGIVGRTGAGKSSMTLCLFRILEAAEGEIFIDGLNVAHIGLHDLRSQLTIIPQDPILFSGTLRMNLDPFGRYSDEDIWRTLELSHLSAFVSSQPTGLDFQCSEGGDNLSVGQRQLVCLARALLRKSRVLVLDEATAAIDLETDDLIQGTIRTQFEDCTVLTIAHRLNTIMDYNRVLVLDKGVVAEFDSPVNLIAAGGIFYGMAKDAGLA |  |  |  | Km [5]: 33.4 µM
7 | Multidrug resistance associated protein (Homo sapiens), Q96QA9 (protein) MDALCGSGELGSKFWDSNLSVHTENPDLTPCFQNSLLAWVPCIYLWVALPCYLLYLRHHCRGYIILSHLSKLKMVLGVLLWCVSWADLFYSFHGLVHGRAPAPVFFVTPLVVGVTMLLATLLIQYERLQGVQSSGVLIIFWFLCVVCAIVPFRSKILLAKAEGEISDPFRFTTFYIHFALVLSALILACFREKPPFFSAKNVDPNPYPETSAGFLSRLFFWWFTKMAIYGYRHPLEEKDLWSLKEEDRSQMVVQQLLEAWRKQEKQTARHKASAAPGKNASGEDEVLLGARPRPRKPSFLKALLATFGSSFLISACFKLIQDLLSFINPQLLSILIRFISNPMAPSWWGFLVAGLMFLCSMMQSLILQHYYHYIFVTGVKFRTGIMGVIYRKALVITNSVKRASTVGEIVNLMSVDAQRFMDLAPFLNLLWSAPLQIILAIYFLWQNLGPSVLAGVAFMVLLIPLNGAVAVKMRAFQVKQMKLKDSRIKLMSEILNGIKVLKLYAWEPSFLKQVEGIRQGELQLLRTAAYLHTTTTFTWMCSPFLVTLITLWVYVYVDPNNVLDAEKAFVSVSLFNILRLPLNMLPQLISNLTQASVSLKRIQQFLSQEELDPQSVERKTISPGYAITIHSGTFTWAQDLPPTLHSLDIQVPKGALVAVVGPVGCGKSSLVSALLGEMEKLEGKVHMKGSVAYVPQQAWIQNCTLQENVLFGKALNPKRYQQTLEACALLADLEMLPGGDQTEIGEKGINLSGGQRQRVSLARAVYSDADIFLLDDPLSAVDSHVAKHIFDHVIGPEGVLAGKTRVLVTHGISFLPQTDFIIVLADGQVSEMGPYPALLQRNGSFANFLCNYAPDEDQGHLEDSWTALEGAEDKEALLIEDTLSNHTDLTDNDPVTYVVQKQFMRQLSALSSDGEGQGRPVPRRHLGPSEKVQVTEAKADGALTQEEKAAIGTVELSVFWDYAKAVGLCTTLAICLLYVGQSAAAIGANVWLSAWTNDAMADSRQNNTSLRLGVYAALGILQGFLVMLAAMAMAAGGIQAARVLHQALLHNKIRSPQSFFDTTPSGRILNCFSKDIYVVDEVLAPVILMLLNSFFNAISTLVVIMASTPLFTVVILPLAVLYTLVQRFYAATSRQLKRLESVSRSPIYSHFSETVTGASVIRAYNRSRDFEIISDTKVDANQRSCYPYIISNRWLSIGVEFVGNCVVLFAALFAVIGRSSLNPGLVGLSVSYSLQVTFALNWMIRMMSDLESNIVAVERVKEYSKTETEAPWVVEGSRPPEGWPPRGEVEFRNYSVRYRPGLDLVLRDLSLHVHGGEKVGIVGRTGAGKSSMTLCLFRILEAAKGEIRIDGLNVADIGDPILFSGTLRMNLDPFGSYSEEDIWWALELSHLHTFVSSQPAGLDFQCSEGGENLSVGQRQLVCLARALLRKSRILVLDEATAAIDLETDNLIQATIRTQFDTCTVLTIAHRLNTIMDYTRVLVLDKGVVAEFDSPANLIAARGIFYGMARDAGLA |  |  |  | Km [6]: 42.9 µM
